Tests used:
Assay type in all cases: in vivo
[1] = tested on: Puccinia recondita f. sp. tritici; assay: Test B: wheat leaf rust, preventive spray on wheat seedlings; conditions: 50 ppm, 100 = 100% disease control, 0 = no control relative to controls
How it was run: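 Wheat seedlings got a run-off spray (ppm, acetone/water 50/50, 250 ppm PEG400) and one day later a spore inoculum. After 24 h at 20° C. in saturated air and 7 days at 20° C., disease was scored as % control relative to controls (100 = full control).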

Phakopsora pachyrhizi = assay: Test D: Asian soybean rust, preventive spray on soybean seedlings; conditions: 50 ppm, 100 = 100% disease control, 0 = no control
How it was run: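 Soybean seedlings sprayed to run-off with compound suspension (ppm, in 50/50 acetone/water with 250 ppm PEG400), inoculated next day with P. pachyrhizi spores, held 24 h saturated at 22°C then 8 days at 22°C. Visual rating 0-100% disease control relative to controls.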

[2] = tested on: Blumeria graminis f. sp. tritici; assay: Test C: wheat powdery mildew, preventive spray on wheat seedlings; conditions: 50 ppm, rated after 8 days, 100 = 100% disease control, 0 = no control
How it was run: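 Wheat seedlings got a run-off spray of test suspension (ppm in acetone/water 50/50, 250 ppm PEG400, acetone 3% of volume), then spore-dust inoculation with wheat powdery mildew one day later. After 8 days' growth-chamber incubation at 20° C, disease control scored visually on a 0–100 scale versus untreated controls.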

Septoria tritici = assay: Test A: wheat leaf blotch, preventive spray on wheat seedlings; conditions: 50 ppm, 100 = 100% disease control, 0 = no control relative to controls
How it was run: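 Preventive test: seedlings sprayed to run-off one day before Septoria tritici spore inoculation, with ppm doses in acetone/water containing 250 ppm PEG400. After 48 h at 24 °C in saturated air and 17 days at 20 °C, plants were scored 0–100 for disease control versus untreated controls.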

Botrytis cinerea = assay: Test E: tomato Botrytis, preventive spray on tomato seedlings; conditions: 50 ppm, 100 = 100% disease control, 0 = no control
How it was run: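 Preventive test: spore inoculation one day after run-off spraying of compound suspension (3% acetone, acetone/water 50/50, 250 ppm PEG400). Incubation 20 °C saturated humidity for 48 h, followed by 3 days at 24 °C growth chamber; disease control scored visually, 100 = full control.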

Alternaria solani = assay: Test F: tomato early blight, preventive spray on tomato seedlings; conditions: 50 ppm, 100 = 100% disease control, 0 = no control
How it was run: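 Preventive test: one day after seedlings were sprayed to run-off with ppm-level suspensions (acetone/water 50/50, 250 ppm PEG400), A. solani spore inoculation followed. Incubation was 48 h at 27° C in saturated air plus 3 days at 20° C; disease control was scored visually versus controls (100 = full control).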

CCc1nn(C)c(Nc2c(F)cc(Br)cc2[N+](=O)[O-])c1-c1ccc(F)cc1F [Compound 171]
Test B disease control rating (wheat leaf rust) [1]: 91%
Test D disease control rating (Asian soybean rust) (Phakopsora pachyrhizi): 0%
Test C disease control rating (wheat powdery mildew) [2]: 99%
Test A disease control rating (wheat leaf blotch) (Septoria tritici): 100%
Test E disease control rating (tomato Botrytis) (Botrytis cinerea): 97%
Test F disease control rating (tomato early blight) (Alternaria solani): 88%

Cc1nn(C)c(N(C)c2c(F)cccc2[N+](=O)[O-])c1-c1ccc(F)cc1Cl [Compound 172]
pest or weed control at 50 ppm ([1]; read-out: Test B disease control rating (wheat leaf rust)): 100%
pest or weed control at 50 ppm (Phakopsora pachyrhizi; Phakopsora pachyrhizi, read-out: Test D disease control rating (Asian soybean rust)): 0%
pest or weed control at 50 ppm ([2]; Blumeria graminis, 192 h, read-out: Test C disease control rating (wheat powdery mildew)): 100%
pest or weed control at 50 ppm (Septoria tritici; Zymoseptoria tritici, read-out: Test A disease control rating (wheat leaf blotch)): 100%
pest or weed control at 50 ppm (Botrytis cinerea; Botrytis cinerea, read-out: Test E disease control rating (tomato Botrytis)): 99%
pest or weed control at 50 ppm (Alternaria solani; Alternaria solani, read-out: Test F disease control rating (tomato early blight)): 40%

CCc1nn(C)c(Nc2ccc(OC)cc2[N+](=O)[O-])c1-c1ccc(F)cc1Cl [Compound 173]
Test B disease control rating (wheat leaf rust) [1]: 100%
Test D disease control rating (Asian soybean rust) (Phakopsora pachyrhizi): 0%
Test C disease control rating (wheat powdery mildew) [2]: 98%
Test A disease control rating (wheat leaf blotch) (Septoria tritici): 100%
Test E disease control rating (tomato Botrytis) (Botrytis cinerea): 98%
Test F disease control rating (tomato early blight) (Alternaria solani): 93%

CCc1nn(C)c(Nc2ccc(C)cc2[N+](=O)[O-])c1-c1ccc(F)cc1Cl [Compound 174]
Test B disease control rating (wheat leaf rust) [1]: 95%
Test D disease control rating (Asian soybean rust) (Phakopsora pachyrhizi): 0%
Test C disease control rating (wheat powdery mildew) [2]: 92%
Test A disease control rating (wheat leaf blotch) (Septoria tritici): 100%
Test E disease control rating (tomato Botrytis) (Botrytis cinerea): 99%
Test F disease control rating (tomato early blight) (Alternaria solani): 39%

CCc1nn(C)c(Nc2ccc(C)cc2[N+](=O)[O-])c1-c1ccc(F)cc1F [Compound 175]
Test B disease control rating (wheat leaf rust) [1]: 86%
Test D disease control rating (Asian soybean rust) (Phakopsora pachyrhizi): 0%
Test C disease control rating (wheat powdery mildew) [2]: 79%
Test A disease control rating (wheat leaf blotch) (Septoria tritici): 100%
Test E disease control rating (tomato Botrytis) (Botrytis cinerea): 88%
Test F disease control rating (tomato early blight) (Alternaria solani): 0%

Cc1nn(C)c(Nc2c(Cl)cc(F)cc2[N+](=O)[O-])c1-c1ccc(Cl)cc1F [Compound 176]
Test B disease control rating (wheat leaf rust) [1]: 97%
Test D disease control rating (Asian soybean rust) (Phakopsora pachyrhizi): 0%
Test C disease control rating (wheat powdery mildew) [2]: 0%
Test A disease control rating (wheat leaf blotch) (Septoria tritici): 100%
Test E disease control rating (tomato Botrytis) (Botrytis cinerea): 9%
Test F disease control rating (tomato early blight) (Alternaria solani): 0%

Cc1cccc([N+](=O)[O-])c1Nc1c(-c2ccc(F)cc2F)c(C)nn1C [Compound 177]
Test B disease control rating (wheat leaf rust) [1]: 97%
Test D disease control rating (Asian soybean rust) (Phakopsora pachyrhizi): 0%
Test C disease control rating (wheat powdery mildew) [2]: 50%
Test A disease control rating (wheat leaf blotch) (Septoria tritici): 100%
Test E disease control rating (tomato Botrytis) (Botrytis cinerea): 100%
Test F disease control rating (tomato early blight) (Alternaria solani): 9%

Cc1cc(F)c(Nc2c(-c3ccc(F)cc3F)c(C)nn2C)c([N+](=O)[O-])c1 [Compound 178]
Test B disease control rating (wheat leaf rust) [1]: 100%
Test D disease control rating (Asian soybean rust) (Phakopsora pachyrhizi): 97%
Test C disease control rating (wheat powdery mildew) [2]: 99%
Test A disease control rating (wheat leaf blotch) (Septoria tritici): 100%
Test E disease control rating (tomato Botrytis) (Botrytis cinerea): 100%
Test F disease control rating (tomato early blight) (Alternaria solani): 100%

COc1ccc(Nc2c(-c3ccc(C#N)cc3F)c(C)nn2C)c([N+](=O)[O-])c1 [Compound 179]
Test B disease control rating (wheat leaf rust) [1]: 96%
Test D disease control rating (Asian soybean rust) (Phakopsora pachyrhizi): 0%
Test C disease control rating (wheat powdery mildew) [2]: 93%
Test A disease control rating (wheat leaf blotch) (Septoria tritici): 100%
Test E disease control rating (tomato Botrytis) (Botrytis cinerea): 99%
Test F disease control rating (tomato early blight) (Alternaria solani): 85%

COc1ccc(Nc2c(-c3ccc(C#N)cc3Br)c(C)nn2C)c([N+](=O)[O-])c1 [Compound 180]
Test B disease control rating (wheat leaf rust) [1]: 98%
Test D disease control rating (Asian soybean rust) (Phakopsora pachyrhizi): 0%
Test C disease control rating (wheat powdery mildew) [2]: 79%
Test A disease control rating (wheat leaf blotch) (Septoria tritici): 100%
Test E disease control rating (tomato Botrytis) (Botrytis cinerea): 99%
Test F disease control rating (tomato early blight) (Alternaria solani): 98%

Cc1cc(Cl)c(Nc2c(-c3ccc(F)cc3Br)c(C)nn2C)c([N+](=O)[O-])c1 [Compound 181]
Test B disease control rating (wheat leaf rust) [1]: 100%
Test D disease control rating (Asian soybean rust) (Phakopsora pachyrhizi): 78%
Test C disease control rating (wheat powdery mildew) [2]: 99%
Test A disease control rating (wheat leaf blotch) (Septoria tritici): 100%
Test E disease control rating (tomato Botrytis) (Botrytis cinerea): 99%
Test F disease control rating (tomato early blight) (Alternaria solani): 99%

COc1ccc(-c2c(C)nn(C)c2Nc2c(F)cc(Br)cc2[N+](=O)[O-])c(Cl)c1 [Compound 182]
Test B disease control rating (wheat leaf rust) [1]: 99%
Test D disease control rating (Asian soybean rust) (Phakopsora pachyrhizi): 0%
Test C disease control rating (wheat powdery mildew) [2]: 76%
Test A disease control rating (wheat leaf blotch) (Septoria tritici): 100%
Test E disease control rating (tomato Botrytis) (Botrytis cinerea): 100%
Test F disease control rating (tomato early blight) (Alternaria solani): 99%

COc1ccc(-c2c(C)nn(C)c2Nc2c(C)cccc2[N+](=O)[O-])c(Cl)c1 [Compound 183]
Test B disease control rating (wheat leaf rust) [1]: 99%
Test D disease control rating (Asian soybean rust) (Phakopsora pachyrhizi): 0%
Test C disease control rating (wheat powdery mildew) [2]: 78%
Test A disease control rating (wheat leaf blotch) (Septoria tritici): 100%
Test E disease control rating (tomato Botrytis) (Botrytis cinerea): 100%
Test F disease control rating (tomato early blight) (Alternaria solani): 58%

COc1ccc(-c2c(C)nn(C)c2Nc2c(Cl)cccc2[N+](=O)[O-])c(Cl)c1 [Compound 184]
Test B disease control rating (wheat leaf rust) [1]: 100%
Test D disease control rating (Asian soybean rust) (Phakopsora pachyrhizi): 0%
Test C disease control rating (wheat powdery mildew) [2]: 21%
Test A disease control rating (wheat leaf blotch) (Septoria tritici): 100%
Test E disease control rating (tomato Botrytis) (Botrytis cinerea): 100%
Test F disease control rating (tomato early blight) (Alternaria solani): 26%

Reference: US12398107B2, “Fungicidal nitroanilino substituted pyrazoles” (FMC Corporation, priority 2018, dated 2025)
